SMILES strings stand for the structures.

The assay deals with T1, STAT6 protein (Homo sapiens, UniProt P42226).
T1 sequence (P42226 1-847): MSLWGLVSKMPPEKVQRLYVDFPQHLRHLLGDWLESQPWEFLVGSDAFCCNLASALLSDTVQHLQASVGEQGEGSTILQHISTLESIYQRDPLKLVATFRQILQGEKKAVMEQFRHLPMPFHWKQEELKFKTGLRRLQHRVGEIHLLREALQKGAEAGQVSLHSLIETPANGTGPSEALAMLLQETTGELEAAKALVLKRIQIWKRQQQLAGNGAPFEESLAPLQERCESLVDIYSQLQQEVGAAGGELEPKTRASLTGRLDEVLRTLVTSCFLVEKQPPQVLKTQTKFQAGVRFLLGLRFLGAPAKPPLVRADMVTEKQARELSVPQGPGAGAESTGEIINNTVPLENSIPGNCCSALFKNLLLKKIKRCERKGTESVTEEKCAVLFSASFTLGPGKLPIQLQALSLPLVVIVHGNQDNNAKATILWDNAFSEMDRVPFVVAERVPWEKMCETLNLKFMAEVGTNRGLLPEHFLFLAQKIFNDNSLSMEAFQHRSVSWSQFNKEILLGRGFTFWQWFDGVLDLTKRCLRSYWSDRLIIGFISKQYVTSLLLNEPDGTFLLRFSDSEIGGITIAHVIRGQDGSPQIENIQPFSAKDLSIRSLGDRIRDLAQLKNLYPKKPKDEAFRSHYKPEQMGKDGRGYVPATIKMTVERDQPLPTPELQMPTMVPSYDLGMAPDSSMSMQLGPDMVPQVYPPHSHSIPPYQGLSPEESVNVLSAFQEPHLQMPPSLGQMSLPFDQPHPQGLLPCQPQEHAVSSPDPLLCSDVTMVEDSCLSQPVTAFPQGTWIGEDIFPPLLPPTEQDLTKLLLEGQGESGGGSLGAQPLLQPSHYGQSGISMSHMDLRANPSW
Briefly: Fluorescence polarization (FP) binding assay, STAT6. The settings on record: FP competition, 5 nM fluorescein-labeled tracer, 200 nM protein, PBS pH7.4; read-out: Binding STAT6. How it is done: Evaluation of the activity of the inhibitors may be accomplished by fluorescence polarization (FP) experiments. A representative general protocol is the following:
Fluorescence polarization (FP) experiments are performed in black round-bottom plates using the CLARIOstar microplate reader. To each well, fluorescein-labeled tracer and STAT5 or STAT6 protein are added in assay buffer. […] The inhibition constants are determined as the concentration of the STAT5 or STAT6 at which 50% of the ligand is bound.
Fluorescence polarization (FP) experiments were performed in 96-well, black round-bottom plates (Microfluor 2, Fisher Scientific) using the CLARIOstar microplate reader (BMG Labtech). To each well, 5 nM of fluoresceinlabeled tracer and 200 nM of STAT5 and/or STAT6 protein were added to a final volume of 100 μl in the assay buffer (PBS pH7.4+0.01% BGG+0.01% Tween-20, 2 mM DTT). The plate was mixed on a shaker for 15 m and incubated at room temperature for 1 h to reach equilibrium. […] All experimental data were analyzed using Prism 8.0 software (GraphPad Software), and the inhibition constants were determined by nonlinear curve fitting as the concentration of the STAT5 and/or STAT6 at which 50% of the ligand is bound.
Background: Fluorescence polarisation rises when a labelled molecule tumbles more slowly, as on binding a larger partner.
In the case of `CC(C)(C)[C@H](NC(=O)c1cc2cc(C(F)(F)P(=O)(O)O)ccc2s1)C(=O)N1Cc2ccccc2C[C@H]1C(=O)N1CCOC(c2cccc3ccccc23)C1` (stereo partly drawn) [Compound 227, ((2-(((2S)-3,3-dimethyl-1-((3S)-3-(2-(naphthalen-1-yl)morpholine-4-carbonyl)-3,4-dihydroisoquinolin-2(1H)-yl)-1-oxobutan-2-yl)carbamoyl)benzo[b]thiophen-5-yl)difluoromethyl)phosphonic acid], the Ki lay within 100 to 1000 nM.
In the case of `Cc1ccccc1C1CN(C(=O)[C@@H]2Cc3ccccc3CN2C(=O)[C@@H](NC(=O)c2cc3cc(C(F)(F)P(=O)(O)O)ccc3s2)C(C)(C)C)CCO1` (stereo partly drawn) [Compound 228, ((2-(((2S)-3,3-dimethyl-1-oxo-1-((3S)-3-(2-(o-tolyl)morpholine-4-carbonyl)-3,4-dihydroisoquinolin-2(1H)-yl)butan-2-yl)carbamoyl)benzo[b]thiophen-5-yl)difluoromethyl)phosphonic acid], the Ki lay within 100 to 1000 nM.
As for `Cc1ccc(C2CN(C(=O)[C@@H]3Cc4ccccc4CN3C(=O)[C@@H](NC(=O)c3cc4cc(C(F)(F)P(=O)(O)O)ccc4s3)C(C)(C)C)CCO2)c(C)c1` (stereo partly drawn) [Compound 229, ((2-(((2S)-1-((3S)-3-(2-(2,4-dimethylphenyl)morpholine-4-carbonyl)-3,4-dihydroisoquinolin-2(1H)-yl)-3,3-dimethyl-1-oxobutan-2-yl)carbamoyl)benzo[b]thiophen-5-yl)difluoromethyl)phosphonic acid], the figure is 1000 to 10000 nM.
The same measure for `CC(C)(C)[C@H](NC(=O)c1cc2cc(C(F)(F)P(=O)(O)O)ccc2s1)C(=O)N1Cc2ccccc2C[C@H]1C(=O)N1CCOC(c2ccccc2F)C1` (stereo partly drawn) [Compound 230, (difluoro(2-(((2S)-1-((3S)-3-(2-(2-fluorophenyl)morpholine-4-carbonyl)-3,4-dihydroisoquinolin-2(1H)-yl)-3,3-dimethyl-1-oxobutan-2-yl)carbamoyl)benzo[b]thiophen-5-yl)methyl)phosphonic acid]: 100 to 1000 nM; for `CC(C)(C)[C@H](NC(=O)c1cc2cc(C(F)(F)P(=O)(O)O)ccc2s1)C(=O)N1Cc2ccccc2C[C@H]1C(=O)N1CCOC(c2ccc(F)cc2)C1` (stereo partly drawn) [Compound 231, (difluoro(2-(((2S)-1-((3S)-3-(2-(4-fluorophenyl)morpholine-4-carbonyl)-3,4-dihydroisoquinolin-2(1H)-yl)-3,3-dimethyl-1-oxobutan-2-yl)carbamoyl)benzo[b]thiophen-5-yl)methyl)phosphonic acid]: 100 to 1000 nM; for `CC(C)(C)[C@H](NC(=O)c1cc2cc(C(F)(F)P(=O)(O)O)ccc2s1)C(=O)N1Cc2ccccc2C[C@H]1C(=O)N1CCOC(c2ccccc2Cl)C1` (stereo partly drawn) [Compound 232, ((2-(((2S)-1-((3S)-3-(2-(2-chlorophenyl)morpholine-4-carbonyl)-3,4-dihydroisoquinolin-2(1H)-yl)-3,3-dimethyl-1-oxobutan-2-yl)carbamoyl)benzo[b]thiophen-5-yl)difluoromethyl)phosphonic acid]: 100 to 1000 nM.
Turning to `CC(C)(C)[C@H](NC(=O)c1cc2cc(C(F)(F)P(=O)(O)O)ccc2s1)C(=O)N1Cc2ccccc2C[C@H]1C(=O)N1CCOC(c2cccc(Cl)c2)C1` (stereo partly drawn) [Compound 233, ((2-(((2S)-1-((3S)-3-(2-(3-chlorophenyl)morpholine-4-carbonyl)-3,4-dihydroisoquinolin-2(1H)-yl)-3,3-dimethyl-1-oxobutan-2-yl)carbamoyl)benzo[b]thiophen-5-yl)difluoromethyl)phosphonic acid], the Ki is less than 100 nM.
For `CC(C)(C)[C@H](NC(=O)c1cc2cc(C(F)(F)P(=O)(O)O)ccc2s1)C(=O)N1Cc2ccccc2C[C@H]1C(=O)N1CCOC(c2ccc(Cl)cc2)C1` (stereo partly drawn) [Compound 234, ((2-(((2S)-1-((3S)-3-(2-(4-chlorophenyl)morpholine-4-carbonyl)-3,4-dihydroisoquinolin-2(1H)-yl)-3,3-dimethyl-1-oxobutan-2-yl)carbamoyl)benzo[b]thiophen-5-yl)difluoromethyl)phosphonic acid], the Ki is 100 to 1000 nM.

These data come from patent publication US20230295200A1 (REGENTS OF THE UNIVERSITY OF MICHIGAN, priority 2022, published 2023).
